Measurements reported in patent publication US8952013B2, “Controlled release sterile injectable aripiprazole formulation and method” (Otsuka Pharmaceutical Co., Ltd., priority 2003, dated 2015).

What was measured:
[1] = at room temperature; cited from earlier work
[2] = hygroscopicity: water content after storage in a dessicator; type: physicochemical; details: after 24 hours inside a dessicator at 60° C. and a humidity of 100%
Description: Aripiprazole Anhydrous Crystals B employed in the present invention have low hygroscopicity. For example, Aripiprazole Anhydrous Crystals B employed in the present invention maintain a water content of 0.4% or less after 24 hours inside a dessicator set at a temperature of 60° C. and a humidity of 100%.
Well-known methods of measuring water content can be used as long as they are methods commonly used for measuring the water content of crystals. For example, a method such as the Karl Fischer method can be used.

Row | Structure (SMILES) | aqueous solubility [1] [µg/mL] | water content [2] [%]
1 | O=C1CCc2ccc(OCCCCN3CCN(c4cccc(Cl)c4Cl)CC3)cc2N1 [Aripiprazole] | < 1 | –
2 | O=C1CCc2ccc(OCCCCN3CCN(c4cccc(Cl)c4Cl)CC3)cc2N1 [Aripiprazole Anhydrous Crystals B, Aripiprazole] | – | ≤ 0.4
